Among the test systems are HCT-116; SF-268; COLO 205; HT-29; RXF 393; SNB-75; SK-MEL-5; NCI-H226; Malme-3M; CCRF-CEM; HOP-18; SF-539; SK-OV-3; MOLT-4; TK-10; SR; ACHN; DU-145; MDA-MB-435.
Common to all, as to experiment: DTP human tumour cell line panel, 48 h

The record followed here is ChEMBL document CHEMBL1201862, “PubChem BioAssay data set” (2004).

Where “and” joins values, the source holds several entries; their conditions need not be identical. Equal values may be shown once. Where a name gives a salt, the structure may show the parent alone.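 All cell lines were grown in 96-well plates and treated with compound for 48 hours. GI50 marks 50% less growth.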 Calls of active or inactive are those of the source. No stated cut-off is given here; in the data, active = GI50 up to about 1.1 µM and inactive = higher.

What is called GI50 is the concentration that inhibits growth by half. Consider `CCC/C=C/C=C\C(=O)O[C@@H]1[C@@H](C)[C@]2(O)[C@@H]3C=C(C)C(=O)[C@H]3CC(COC(C)=O)=C[C@H]2[C@@H]2C(C)(C)[C@]12OC(C)=O`, for which the GI50 in the test on HCT-116 was 20.4 µM (inactive); in the test with SF-268, 39.7 µM (inactive); in the test with COLO 205, 1.74 µM (inactive); in the test with HT-29 it was 40 µM (inactive); with RXF 393 it was 47.5 µM (inactive); in the test on SNB-75, 57.7 µM (inactive). The GI50 was 16.4 µM (inactive) with SK-MEL-5; 46.6 µM (inactive) in the test on NCI-H226; 33.2 µM (inactive) in the test on Malme-3M; 3.56 µM (inactive) in the test with CCRF-CEM; 28 µM (inactive) in the test on HOP-18; 41.4 µM (inactive) in the test with SF-539. Moreover, the values for the GI50 in the test with SK-OV-3 and with MOLT-4 were 81.7 µM (inactive) and 10.2 µM (inactive), respectively.
Consider `Nc1ccc2cc3ccc(N)cc3nc2c1` [PROFLAVINE SULFATE], for which the GI50 with HCT-116 was 366 nM (active) and 405 nM (active); with SF-268, 1.32 µM (inactive) and 2.19 µM (inactive); with COLO 205, 561 nM (active) and 543 nM (active); in the test on TK-10, 2.7 µM (inactive) and 4.33 µM (inactive); with HT-29 it was 953 nM (active) and 668 nM (active); in the test with SNB-75, 1.59 µM (inactive) and 1.16 µM (inactive). Moreover, the GI50 was 1.61 µM (inactive) and 1.38 µM (inactive) in the test on SK-MEL-5; 0.444 µM (active) with SR; 508 nM (active) and 601 nM (active) in the test with CCRF-CEM; 2.76 µM (inactive) with HOP-18; 1.26 µM (inactive) and 1.16 µM (inactive) in the test on SF-539; 789 nM (active) and 537 nM (active) in the test on ACHN. For the same molecule, the concentration for 50% growth inhibition (GI50) in the test on MOLT-4 is 338 nM (active) and 284 nM (active); in the test on DU-145, 2.21 µM (inactive); with MDA-MB-435, 1.48 µM (inactive).
